# Article PMC5244392, “Interspecies cathelicidin comparison reveals divergence in antimicrobial activity, TLR modulation, chemokine induction and regulation of phagocytosis” (Scientific Reports, 2017)
# Legend:
# [1] = tested on: methicillin resistant Staphylococcus aureus (MRSA) (WKZ-2, human clinical isolate); test: Bacterial growth delay (Bioscreen C), MRSA; assay type: cell-based
# Procedure: (§1) E. coli O78 (Zoetis Animal Health, Kalamazoo, MI, USA), E. coli ATCC 25922, Staphylococcus aureus ATCC 29213, and methicillin resistant Staphylococcus aureus (MRSA) (WKZ-2, human clinical isolate) were grown overnight from a glycerol stock in Mueller Hinton Broth (MHB) (Becton Dickinson, USA). Before use, bacteria were grown to mid-log phase in MHB for 2 hours at 37 °C, 200 RPM. Murine RAW264.7 macrophages (ATCC-TIB-71) were obtained from the American Type Culture Collection (ATCC, Manassas, VA, USA) and cultured in DMEM (41966-029; Thermo Fisher Scientific, Waltham, MA, USA) supplemented with 10% FCS (Bodinco B.V., Alkmaar, the Netherlands) (DMEM + FCS) at 37 °C, 5.0% CO2. Cells were seeded in 96-wells plates at 5 × 10^5 cells/ml or 12-wells plates at 2 × 10^5/ml for adherence overnight prior to stimulation.
# (§2) Peptides (0.63 to 40 μM) and bacteria mid-log cultures (2 * 10^6 CFU/ml) were prepared in MHB or DMEM + FCS and mixed (100 μl peptide + 100 μl bacterial culture) in a Bioscreen C analyzer plate (Oy Growth Curves Ab Ltd, Helsingfors, Finland). Plates were placed in a Bioscreen C analyzer (Oy Growth Curves Ab Ltd) and bacteria were grown for 16 h at 37 °C with 200 RPM. The OD was measured every 15 minutes using a wideband filter (450–580 nm) to measure bacterial growth. The time needed grow above an OD of 0.6 was determined for all concentrations. Activity of peptides was expressed as the Cmax, the concentration of peptide required to delay the growth for 10 h compared to the control. Or, for peptides with low activity (no Cmax), activity was expressed as the hours of growth delay at 20 μM. Unlike the classic MIC and MBC determination used in microbiology, this method also enabled comparison of peptides with low antibacterial activity.
# (§3) Twelve cathelicidins from 6 different species were selected for this study, namely: human LL-37, murine CRAMP, dog K9CATH, equine CATH (eCATH)-1, -2 and -3, chicken CATH (chCATH)-1, -2, and -3, porcine PMAP-23 and -36 and PR-39 (Table 1). Antimicrobial activity against E. coli and MRSA was directly compared under standardized conditions in MHB, a medium optimized for bacterial growth. Bacterial growth delay was defined as the delay in hours for peptide-treated bacteria to reach an OD of 0.6, compared to the non-treated control. Cmax is the minimal concentration needed to delay growth for a minimum of 10 hours compared to the non-treated control (Table 1 and Fig. 1A).
# (§4) Figure 1 Antibacterial activity of cathelicidins. E. coli and MRSA (1 × 10^6 CFU/ml) of were grown in MHB or DMEM ± FCS for 16 hours under constant shaking (200 RPM). Every 15 minutes the OD was measured. Growth delay was defined as the time needed for peptide-treated bacteria to grow above an OD of 0.6 compared to the control bacteria (no peptide added) (A). Cathelicidins were tested in different concentrations (0.31 μM, 0.63 μM, 1.25 μM, 2.5 μM, 5 μM, 10 μM, and 20 μM) to determine the antimicrobial activity in MHB against E. coli (B) or MRSA (C) and in more physiological medium DMEM + FCS (D,E). Results are presented as average +/− SEM (N = 4).
# [2] = tested on: CCL2 (MCP-1) release by RAW264.7 cells; test: Cathelicidin induced CCL2 release; assay type: cell-based, murine; conditions: 24 h, peptide 0.08-20 μM
# Procedure: as §1
# ELISA Duoset kits for mouse TNFα, CCL5, CXCL10 and IL-10 were obtained from R&D systems (Minneapolis, MN, USA) and ELISAs were performed according to the manufacturer’s protocol. Samples were stored at −20 °C until analysis and, if needed, diluted in 1% BSA in PBS, pH 7.4. Absorbance at 450 nm was determined in a FLUOstar Omega microplate reader (BMG Labtech GmbH) and corrected for absorbance at 570 nm. Results were analyzed with MARS data analysis software (BMG Labtech GmbH).
# Since cathelicidins have membrane-perturbing properties which might affect the host’s cell membrane, first the possible cytotoxicity of the cathelicidins to RAW264.7 cells was assessed. […] Next, RAW264.7 cells were stimulated with the cathelicidins at various concentrations for 2 h and 24 h, after which release of CCL2 (MCP-1), CCL5 (RANTES), CXCL10 (IP-10), TNFα and IL-10 was determined.
# Figure 2 Cathelicidin induced chemokine and cytokine release by RAW264.7 cells. RAW264.7 cells were incubated for 2 h and 24 h with cathelicidins (0.08 μM, 0.31 μM, 1.25 μM, 5 μM, and 20 μM), after which the supernatants were harvested and tested for release of CCL2 at 2 h (A) and 24 h (B), CCL5 at 24 h (C) and CXCL10 at 24 h (D). Dotted line represents average cytokine release of control samples. Results are presented as average +/− SEM (N = 3). Statistical differences were determined by Two-way ANOVA with Bonferroni post-hoc test.
# [3] = tested on: E. coli O78; test: Bacterial growth delay (Bioscreen C), E. coli; assay type: cell-based, Escherichia coli
# Procedure: as §1, §2, §3, §4
sequence,measurement,setting,value
"RRRPRPPYLPRPRPPPFFPPRLPPRIPPGFPPRFPPRFP [PR-39, porcine proline-rich cathelicidin forming a polyproline helix, 39 residues, charge +10]","Cmax, MRSA, DMEM","[1]; DMEM + FCS, 1 × 10^6 CFU/ml, peptide 0.31-20 μM, 16 h, 37 °C, — = no Cmax reached up to 20 μM, N = 4",10 µM
same,"Summary class, antimicrobial activity S. aureus DMEM","[1]; DMEM + FCS, MRSA, − is not defined in the key",+++ (+++ = Cmax at ≤20 μM)
same,"Activity against MRSA in MHB, in words","[1]; MHB, peptide up to 20 μM",no effect
same,"Max: hours growth delay with 20 μM cathelicidin, MRSA, MHB","[1]; MHB, 20 μM peptide, given if no Cmax was reached, N = 4",0.5 h
same,"Effect on CCL2 secretion after 24 h stimulation, in words",[2],non-significant
same,"Max: hours growth delay with 20 μM cathelicidin, E. coli, DMEM","[3]; DMEM + FCS, 20 μM peptide, given if no Cmax was reached, N = 4",7.0 h
same,Delay of the growth of E. coli,"[3]; DMEM + FCS, peptide concentration not given (0.31-20 μM tested)",at least 7 hours
same,"Summary class, antimicrobial activity E. coli DMEM","[3]; DMEM + FCS, − is not defined in the key",+ (+ = >4 hours inhibition at 20 μM)
same,"Cmax: cathelicidin concentration resulting in a delay in bacterial growth with minimal 10 hours, E. coli, MHB","[3]; MHB, 1 × 10^6 CFU/ml, peptide 0.31-20 μM, 16 h, 37 °C, 200 RPM, time to OD 0.6 vs control, — = no Cmax reached up to 20 μM, N = 4",20 µM
same,"Summary class, antimicrobial activity E. coli MHB","[3]; MHB, − is not defined in the key",+++ (+++ = Cmax at ≤20 μM)
